Experimental findings from ChEMBL document CHEMBL5725458, “Histone deacetylase inhibitors and compositions and methods of use thereof” (2018) are described below.

A word on the IC50: it is the concentration needed to halve the response being measured. Read a low IC50 as inhibition by little substance.

This experiment deals with Histone deacetylase 4 (Homo sapiens, UniProt P56524). Put plainly: HDAC4 Biochemical: The Class I HDAC activity of Class IIa Histone Deacetylase (HDAC) inhibitors was quantified by measuring the cellular histone deacetylase enzymatic activity using the fluorogenic substrate, Boc-Lys(Ac)-AMC. This was performed according to the procedure in Example 17, using Boc-Lys(Ac)-AMC substrate in place of Boc-Lys(TFA)-AMC.

Molecules are shown by their SMILES.

Chain of Histone deacetylase 4 (P56524 whole entry): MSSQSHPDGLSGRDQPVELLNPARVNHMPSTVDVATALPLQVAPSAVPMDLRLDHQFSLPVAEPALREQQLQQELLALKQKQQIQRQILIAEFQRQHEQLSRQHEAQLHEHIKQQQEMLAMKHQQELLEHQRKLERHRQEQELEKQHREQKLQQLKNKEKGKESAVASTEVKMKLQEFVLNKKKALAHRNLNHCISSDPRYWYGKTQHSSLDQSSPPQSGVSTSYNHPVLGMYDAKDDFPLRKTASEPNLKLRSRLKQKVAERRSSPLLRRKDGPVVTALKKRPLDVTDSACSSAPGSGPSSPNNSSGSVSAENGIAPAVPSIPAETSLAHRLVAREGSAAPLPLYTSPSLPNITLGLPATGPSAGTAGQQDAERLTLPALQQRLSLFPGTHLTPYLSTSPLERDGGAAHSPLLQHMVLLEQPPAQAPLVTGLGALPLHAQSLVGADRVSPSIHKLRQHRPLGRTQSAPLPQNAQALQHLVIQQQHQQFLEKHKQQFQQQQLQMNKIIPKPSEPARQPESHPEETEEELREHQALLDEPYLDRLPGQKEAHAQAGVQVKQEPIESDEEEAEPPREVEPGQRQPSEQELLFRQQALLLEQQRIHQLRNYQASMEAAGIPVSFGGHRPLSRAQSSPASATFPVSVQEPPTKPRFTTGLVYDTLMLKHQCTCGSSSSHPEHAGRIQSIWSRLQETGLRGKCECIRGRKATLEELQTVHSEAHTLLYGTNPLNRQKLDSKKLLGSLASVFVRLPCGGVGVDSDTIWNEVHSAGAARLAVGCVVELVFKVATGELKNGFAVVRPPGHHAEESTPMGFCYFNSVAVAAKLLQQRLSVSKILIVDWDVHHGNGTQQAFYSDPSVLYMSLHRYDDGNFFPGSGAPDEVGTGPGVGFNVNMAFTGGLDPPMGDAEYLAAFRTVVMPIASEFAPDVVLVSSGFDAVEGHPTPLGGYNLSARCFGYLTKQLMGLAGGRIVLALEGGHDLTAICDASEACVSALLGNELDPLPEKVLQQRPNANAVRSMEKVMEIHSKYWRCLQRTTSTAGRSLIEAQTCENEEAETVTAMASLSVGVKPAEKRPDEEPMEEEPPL

Turning to `O=C(NC1(CN2CC3CCC(C3)C2)CC1)c1ccc(-c2noc(C(F)(F)F)n2)cc1`, the midpoint of inhibition, the IC50, lay at 330 nM.
